Measured values: patent US9249163B2, “PDE10a inhibitors for the treatment of type II diabetes” (Janssen Pharmaceutica, NV, priority 2013, dated 2016)
Counter-ions that a name gives are not always drawn.

Columns and labels:
[1] = target: Rat recombinant PDE10a (rPDE10a) (Rattus norvegicus (Rat), UniProt Q9QYJ6); experiment: In vitro assay PDE10a (rat recombinant PDE10a, SPA); type: biochemical; conditions: 60 nM cAMP, 60 min at rt, read-out: rPDE10a2 IC50
Summary of the method: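 Rat PDE10a expressed in Sf9 cells (baculovirus) and Ni-sepharose purified. Incubated with compound for 60 min at rt in 50 mM Tris pH 7.8, 8.3 mM MgCl2, 1.7 mM EGTA with 60 nM cAMP plus 0.008 μCi ^3H-cAMP (final), 1% DMSO. Read-out by PDE SPA bead scintillation counting (cpm), no-enzyme blank.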

[2] = target: Human recombinant PDE10A2 (Homo sapiens (Human), UniProt Q9Y233); experiment: In vitro hPDE10a (human recombinant PDE10A2, scintillation proximity assay); type: biochemical; conditions: human recombinant PDE10A2, 60 nM cAMP, 60 min at room temperature; read-out: hPDE10a2 IC50
Sequence of Human recombinant PDE10A2 (Q9Y233 267-1055): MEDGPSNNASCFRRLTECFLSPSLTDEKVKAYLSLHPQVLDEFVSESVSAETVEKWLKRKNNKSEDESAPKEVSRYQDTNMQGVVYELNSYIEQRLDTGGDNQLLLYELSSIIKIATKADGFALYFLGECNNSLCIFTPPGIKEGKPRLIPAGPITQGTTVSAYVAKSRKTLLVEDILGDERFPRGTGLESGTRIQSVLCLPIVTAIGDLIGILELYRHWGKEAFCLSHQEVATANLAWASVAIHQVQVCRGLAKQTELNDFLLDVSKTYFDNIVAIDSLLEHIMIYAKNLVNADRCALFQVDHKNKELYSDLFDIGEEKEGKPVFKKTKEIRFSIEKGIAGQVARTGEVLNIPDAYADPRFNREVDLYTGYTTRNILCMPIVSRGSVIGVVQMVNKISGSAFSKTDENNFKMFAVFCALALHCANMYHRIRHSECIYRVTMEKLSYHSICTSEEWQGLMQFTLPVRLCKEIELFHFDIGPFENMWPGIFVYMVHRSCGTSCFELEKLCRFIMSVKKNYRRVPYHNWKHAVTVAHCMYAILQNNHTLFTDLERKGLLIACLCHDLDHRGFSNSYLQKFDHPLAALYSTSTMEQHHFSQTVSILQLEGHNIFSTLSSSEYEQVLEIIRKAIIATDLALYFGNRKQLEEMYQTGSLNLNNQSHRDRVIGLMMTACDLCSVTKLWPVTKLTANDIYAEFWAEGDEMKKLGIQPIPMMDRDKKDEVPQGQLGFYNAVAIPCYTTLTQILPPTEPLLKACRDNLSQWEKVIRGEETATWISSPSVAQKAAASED

[3] = PDE10a-perfused brain permeability study (plasma and brain concentrations); conditions: male, Sprague-Dawley, rat; for Kp at 2 h: brain/plasma
Protocol: Drug administration by oral gavage, subcutaneous injection or intravenous was carried out using male Sprague Dawley rats under IACUC protocol (SH-MET3010). Male Sprague Dawley rats (Charles River) ˜300-350 g were maintained on a 4% standard rodent diet (Test Diet 5001). They are allowed ad libitum access to water and food. Room temperature was maintained at 64° F. and humidity at 30-70%.
Three animals per compound were provided a dose of 2 mg/mL in 20% HpbCD/Tris pH 8 by tail i.v. or 30 mpk p.o. or s.c. in 20% HpbCD/Tris pH 8, with PDE10a antagonists. A first blood sample was collected at 30 min via retro-orbital sinus (anesthetic by 70% CO2/30% O2) into heparinzed plasma separator tubes. The blood was centrifuged and 100 uL plasma was placed into a 96 well plate and saved on dry ice.
After the 120 min, the final blood sample was collected via retro-orbital sinus under anesthesia by IP 0.5 cc injection of a 4/1 mixture of Ketaset: AnaSed [(prepared 10 mL Ketaset (100 mg/mL Ketamine)+2.5 mL AnaSed (20 mg/mL Xylazine)]. The rats were then perfused with 400 mL heparinized saline (10,000 units/L) through the left ventricle of the heart; the brains were then removed (not including the medulla), weighed and homogenized in PBS (4 mL/g tissue). The samples were stored at −80° C. and submitted for chemical analysis of blood and brain concentrations. Endpoints of sample analysis consists of the plasma concentrations at 30 and 120 min, plus brain concentrations at 120 min.

Sequence of Rat recombinant PDE10a (rPDE10a) (Q9QYJ6 whole entry): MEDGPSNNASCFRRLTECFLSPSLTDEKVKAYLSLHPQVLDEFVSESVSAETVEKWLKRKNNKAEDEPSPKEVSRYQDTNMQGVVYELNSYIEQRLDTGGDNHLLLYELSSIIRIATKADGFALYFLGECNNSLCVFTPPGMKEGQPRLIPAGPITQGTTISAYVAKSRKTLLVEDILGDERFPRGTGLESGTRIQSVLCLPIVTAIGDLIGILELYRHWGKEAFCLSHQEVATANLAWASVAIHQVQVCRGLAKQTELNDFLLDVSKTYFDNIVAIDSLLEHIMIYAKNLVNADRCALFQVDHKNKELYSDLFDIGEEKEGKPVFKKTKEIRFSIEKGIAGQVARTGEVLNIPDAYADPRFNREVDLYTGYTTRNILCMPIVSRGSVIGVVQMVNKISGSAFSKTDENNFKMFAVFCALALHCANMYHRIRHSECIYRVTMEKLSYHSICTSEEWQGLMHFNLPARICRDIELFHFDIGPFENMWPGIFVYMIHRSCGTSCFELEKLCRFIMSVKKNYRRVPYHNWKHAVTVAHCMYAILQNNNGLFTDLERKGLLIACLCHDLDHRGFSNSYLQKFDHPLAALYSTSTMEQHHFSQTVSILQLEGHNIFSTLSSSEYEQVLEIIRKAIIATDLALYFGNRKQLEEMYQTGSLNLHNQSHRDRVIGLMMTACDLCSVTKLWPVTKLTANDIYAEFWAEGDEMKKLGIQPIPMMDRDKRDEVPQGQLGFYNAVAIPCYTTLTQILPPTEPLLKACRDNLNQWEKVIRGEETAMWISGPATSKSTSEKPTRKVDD

IC50 [1]	IC50 [2]	concentration at 2 h ([3]; brain)	Kp at 2 h [3]	concentration at 2 h ([3]; plasma)	Structure (SMILES)
< 1 nM	1 nM	0 ng/g	0	58 ng/mL	O=c1[nH]c(-c2ccc(-c3cnc(N4CCOCC4)c4nc(CCc5ccc6ccccc6n5)cn34)cn2)no1 [Cpd 74, 3-[5-[8-(Morpholin-4-yl)-2-[2-(quinolin-2-yl)ethyl]imidazo[1,2-a]pyrazin-5-yl]pyridin-2-yl]-4,5-dihydro-1,2,4-oxadiazol-5-one]
3 nM	2 nM	0 ng/g	0	115 ng/mL	CS(=O)(=O)NC(=O)c1ccc(-c2cnc(N3CCOCC3)c3nc(COc4ccc5ccccc5n4)cn23)cn1 [Cpd 76, N-Methanesulfonyl-5-[8-(morpholin-4-yl)-2-[(quinolin-2-yloxy)methyl]imidazo[1,2-a]pyrazin-5-yl]pyridine-2-carboxamide]
3 nM	12 nM	112 ng/g	0.55	209 ng/mL	C(=C\c1cn2c(-c3ccc(-c4nnc[nH]4)nc3)cnc(N3CCOCC3)c2n1)/c1ccc2ccccc2n1 [Cpd 91, (E)-4-(5-(6-(2H-1,2,4-Triazol-3-yl)pyridin-3-yl)-2-(2-(quinolin-2-yl)vinyl)imidazo[1,2-a]pyrazin-8-yl)morpholine]
3 nM	6 nM	78.3 ng/g	0.77	135 ng/mL	c1ccc2nc(OCc3cn4c(-c5ccc(Sc6cnn[nH]6)nc5)cnc(N5CCOCC5)c4n3)ccc2c1 [Cpd 92, 4-(5-(6-((1H-1,2,3-Triazol-5-yl)thio)pyridin-3-yl)-2-((quinolin-2-yloxy)methyl)imidazo[1,2-a]pyrazin-8-yl)morpholine]
10 nM	13 nM	0 ng/g	0	98 ng/mL	C(=C\c1cn2c(-c3cnc4nc[nH]c4c3)cnc(N3CCOCC3)c2n1)/c1ccc2ccccc2n1 [Cpd 93, (E)-4-(5-(3H-Imidazo[4,5-b]pyridin-6-yl)-2-(2-(quinolin-2-yl)vinyl)imidazo[1,2-a]pyrazin-8-yl)morpholine]
< 1 nM	5 nM	0 ng/g	0	113 ng/mL	O=c1[nH]c(-c2ccc(-c3cnc(N4CCOCC4)c4nc(/C=C/c5ccc6ccccc6n5)cn34)cn2)no1 [Cpd 95, (E)-3-(5-(8-Morpholino-2-(2-(quinolin-2-yl)vinyl)imidazo[1,2-a]pyrazin-5-yl)pyridin-2-yl)-1,2,4-oxadiazol-5-ol]
1 nM	1 nM	0 ng/g	0	84 ng/mL	c1ccc2nc(OCc3cn4c(-c5ccc(-c6nnn[nH]6)nc5)cnc(N5CCOCC5)c4n3)ccc2c1 [Cpd 97, 4-(5-(6-(1H-Tetrazol-5-yl)pyridin-3-yl)-2-((quinolin-2-yloxy)methyl)imidazo[1,2-a]pyrazin-8-yl)morpholine]
87 nM	110 nM	8.15 ng/g	0.03	226 ng/mL	NS(=O)(=O)N1CCC(c2cnc(N3CCOCC3)c3nc(COc4ccc5ccccc5n4)cn23)CC1 [Cpd 109, 4-(8-Morpholino-2-((quinolin-2-yloxy)methyl)imidazo[1,2-a]pyrazin-5-yl)piperidine-1-sulfonamide trifluoroacetic acid salt]
26 nM	54 nM	108 ng/g	2.99	53.8 ng/mL	c1ccc2nc(OCc3cn4c(-c5ccc(N6CCNCC6)nc5)cnc(-c5ccc6nc[nH]c6c5)c4n3)ccc2c1 [Cpd 119, 2-((8-(1H-Benzo[d]imidazol-6-yl)-5-(6-(piperazin-1-yl)pyridin-3-yl)imidazo[1,2-a]pyrazin-2-yl)methoxy)quinoline trifluoroacetic acid salt]
83 nM	59 nM	81.5 ng/g	1.55	55.1 ng/mL	c1ccc2nc(OCc3cn4c(-c5cnc(N6CCNCC6)nc5)cnc(N5CCOCC5)c4n3)ccc2c1 [Cpd 121, 4-(5-(2-(Piperazin-1-yl)pyrimidin-5-yl)-2-((quinolin-2-yloxy)methyl)imidazo[1,2-a]pyrazin-8-yl)morpholine methane sulfonic acid salt]
339 nM	309 nM	54.9 ng/g	1.2	45.9 ng/mL	O=C(Nc1cn2c(-c3ccc(N4CCNCC4)nc3)cnc(N3CCOCC3)c2n1)c1ccc2ccccc2n1 [Cpd 125, N-(8-Morpholino-5-(6-(piperazin-1-yl)pyridin-3-yl)imidazo[1,2-a]pyrazin-2-yl)quinoline-2-carboxamide hydrochloric acid salt]
13 nM	34 nM	49.3 ng/g	2.26	22.4 ng/mL	c1ccc2nc(OCc3cn4c(-c5ccc(N6CCNCC6)nc5)cnc(N5CCOCC5)c4n3)ccc2c1 [Cpd 126, 4-(5-(6-(piperazin-1-yl)pyridin-3-yl)-2-((quinolin-2-yloxy)methyl)imidazo[1,2-a]pyrazin-8-yl)morpholine methane sulfonic acid salt]
31 nM	30 nM	1.85 ng/g	0.58	16.4 ng/mL	Cc1ccc(-c2cnc(N3CCOCC3)c3nc(COc4ccc5ccccc5n4)cn23)cn1 [Cpd 128, 4-(5-(6-Methylpyridin-3-yl)-2-((quinolin-2-yloxy)methyl)imidazo[1,2-a]pyrazin-8-yl)morpholine methane sulfonic acid salt]
27 nM	31 nM	21.9 ng/g	2.07	11 ng/mL	c1cncc(-c2cnc(N3CCOCC3)c3nc(COc4ccc5ccccc5n4)cn23)c1 [Cpd 129, 4-(5-(Pyridin-3-yl)-2-((quinolin-2-yloxy)methyl)imidazo[1,2-a]pyrazin-8-yl)morpholine methane sulfonic acid salt]
11 nM	51 nM	57.3 ng/g	2.04	28.1 ng/mL	c1ccc2nc(OCc3cn4c(-c5ccc(N6CCOCC6)nc5)cnc(N5CCOCC5)c4n3)ccc2c1 [Cpd 131, 4-(5-(8-Morpholino-2-((quinolin-2-yloxy)methyl)imidazo[1,2-a]pyrazin-5-yl)pyridin-2-yl)morpholine]

Structure (SMILES)	IC50 [1]	IC50 [2]	concentration at 2 h ([3]; brain)	Kp at 2 h [3]	concentration at 2 h ([3]; plasma)
CC(=O)NS(=O)(=O)c1ccc(-c2cnc(N3CCOCC3)c3nc(/C=C/c4ccc5ccccc5n4)cn23)cc1 [Cpd 69, (E)-N-(4-(8-Morpholino-2-(2-(quinolin-2-yl)vinyl)imidazo[1,2-a]pyrazin-5-yl)phenylsulfonyl)acetamide trifluoroacetic acid salt]	4 nM	4 nM	36.1 ng/g	1	73.6 ng/mL
O=C(O)CNc1ccc(-c2cnc(N3CCOCC3)c3nc(COc4ccc5ccccc5n4)cn23)cn1 [Cpd 107, 2-((5-(8-Morpholino-2-((quinolin-2-yloxy)methyl)imidazo[1,2-a]pyrazin-5-yl)pyridin-2-yl)amino)acetic acid trifluoroacetic acid salt]	2 nM	2 nM	0 ng/g	0	22.5 ng/mL
O=C(O)CN1CCC(c2cnc(N3CCOCC3)c3nc(COc4ccc5ccccc5n4)cn23)CC1 [Cpd 110, 2-(4-(8-Morpholino-2-((quinolin-2-yloxy)methyl)imidazo[1,2-a]pyrazin-5-yl)piperidin-1-yl)acetic acid trifluoroacetic acid salt]	288 nM	407 nM	0 ng/g	0	4.63 ng/mL
